Test results reported in paper PMC6759747.

Assay: on-resin side-chain-to-N-terminus lactamisation (lanthionine D-half alpha-COOH + N-terminal amine); PyAOP 5 eq, HOAt 5 eq, DIPEA 10 eq, after TBAF (Teoc/TMSE) and piperidine (Fmoc) removal; NovaSyn TGT low-loading resin
Conditions: the molecule shown is the open-chain precursor, DMF, 60.0 °C

## *OC(=O)[C@H](CCCCNC(=O)OC(C)(C)C)NC(=O)[C@H](CSC[C@@H](N)C(=O)O)NC(=O)CNC(=O)[C@@H]1CCCN1
13-membered ring, 3.1 h
  ring closure, overall yield: 7%

## *OC(=O)[C@H](CCCCNC(=O)OC(C)(C)C)NC(=O)[C@H](CS[C@@H](C)[C@@H](N)C(=O)O)NC(=O)CNC(=O)[C@@H]1CCCN1
13-membered ring, 5.1 h
  ring closure, overall yield: 37%

## *OC(=O)[C@H](C)NC(=O)[C@H](CSC[C@@H](N)C(=O)O)NC(=O)[C@H](CC(C)C)NC(=O)[C@H](COC(C)(C)C)NC(=O)[C@@H](N)CC(C)C
16-membered ring, 3.1 h
  ring closure, overall yield: 5%

## *OC(=O)[C@H](C)NC(=O)[C@H](CSC[C@@H](N)C(=O)O)NC(=O)[C@H](CC(C)C)NC(=O)[C@H](CSC(c1ccccc1)(c1ccccc1)c1ccccc1)NC(=O)[C@@H](N)[C@@H](C)CC
16-membered ring, 3.1 h
  ring closure, overall yield: 11%

## *OC(=O)[C@H](C)NC(=O)[C@H](CSC[C@@H](N)C(=O)O)NC(=O)[C@H](CC(C)C)NC(=O)[C@H](C)NC(=O)[C@@H](N)CC(C)C
16-membered ring, 3.1 h
  ring closure, overall yield: 3%

## *OC(=O)[C@@H](NC(=O)[C@H](CSC[C@@H](N)C(=O)O)NC(=O)CNC(=O)[C@@H](N)CC(C)C)[C@@H](C)OC(C)(C)C
13-membered ring, 3.1 h
  ring closure, overall yield: 34%

## *OC(=O)[C@H](C)NC(=O)[C@H](CSC[C@@H](N)C(=O)O)NC(=O)[C@H](CC(C)C)NC(=O)[C@H](CSC(c1ccccc1)(c1ccccc1)c1ccccc1)NC(=O)[C@@H](N)CC(C)C
16-membered ring, 3.1 h
  ring closure, overall yield: 15%
